“Also recorded” adds a separate entry of the source. Marks after values point to notes of the source that are not given here.
Columns and labels:
hiPSC-CMs [1] = assay: Hypertrophic response (cell area) of hiPSC-CMs; assay type: cell-based, human; settings: for increase in cell area: vs vehicle
Experimental: Panels A-B show an image and graph, respectively, depicting hiPSC-CMs cultured under indication conditions and treated with vehicle, 10 μM phenylephrine (PE) or 10 μM PE and 1 μM JQ-1 (a BET Bromodomain inhibitor) for 48 hours, then fixed and stained for α-actinin (green) and Hoescht 3342 (blue). Representative images are shown in panel A. Cell area of hiPSC-CMs were quantified in panel B. Cell areas measured on 616-789 cardiomyocytes pooled from four independent inductions. Panel C is a graph depicting qPCR for B-type natriuretic peptide, normalized to 18S rRNA and shown as fold change relative to GLUC, from cDNA prepared from four independent inductions. Panels D-F depict data showing characterization of cardiac hypertrophy in Danon hiPSC-CMs under various culture conditions, and their comparison to the hypertrophy observed in human patients. In Panel D, hypertrophy (as assessed by left ventricular posterior wall thickness, LVPW) in the hearts of human patients is shown. […] Cell areas measured on 356-1056 cardiomyocytes pooled from two independent inductions. *, **, **** p<0.05, 0.01, 0.0001, Kruskal-Wallis test followed by Dunn's multiple comparison test (B,D) or one way ANOVA followed by Tukey's multiple comparison test on log2 transformed data (C).
Cell imaging studies: Cells on small unpatterned or patterned surfaces in 24 well plates were used for immunofluorescent staining. Briefly, cells were washed with PBS, then fixed either with 4% paraformaldehyde (PFA) in PBS (10 minutes at room temperature) or a 1:1 mixture of methanol and acetone (5minutes at -20° C.). After fixation, cells were washed with PBS, then permeabilized with 0.2% Triton-X 100 in PBS (10 minutes at room temperature). Methanol/acetone fixation was used for images shown in FIG. 1 (staining for α-actinin, MYBPC3, c-TNI, and MLC-2V). PFA fixation was used for all other experiments. All measurements of cell area and hypertrophy were conducted on PFA fixed cells.
For cell area measurements, cells were PFA fixed and stained for α-actinin as described above, then counterstained with HCS CellMask™ Orange (Thermo Fisher Scientific, Waltham, Mass.), diluted 1:2, 500 in PBS, for 30 minutes at room temperature.
All imaging was conducted on an EVOS FL Cell Imaging System (Thermo Fisher Scientific, Waltham, MA). All image analysis including measurements of cell area, circularity, and sarcomere length were conducted using Image J.

[2] = tested on: adult mouse ventricular cardiomyocytes (AMVCMs); assay: Hypertrophic response (cell area) of adult mouse ventricular cardiomyocytes; assay type: cell-based
Experimental: (§1) Panels A-B show representative images of BNP staining and quantification of BNP and pro-NT-BNP-positive hiPSC-CMs cultured and treated as described in FIGS. 12A-B. Panels C-D show representative brightfield images and cell area of AMVCMs under indicated conditions. AMVCMs were isolated from 8-12 week old adult mice then treated with vehicle, 10 μM phenylephrine (PE) or 10 μM PE and 1 μM JQ-1 for 72 hours, then fixed. **** p<0.0001, Kruskal-Wallis test followed by Dunn's multiple comparison test. Cell areas measured on 664-706 cardiomyocytes pooled from four separate cardiomyocyte isolations.
Cardiomyocyte Isolation: 15 minutes prior to beginning isolation, mice were injected with 300 μL of heparin (10,000 units/mL). Mice were then anesthetized via inhalation of isofluorane, and when becoming unresponsive to toe pinch were killed via cervical dislocation. The chest was then opened, and the heart was removed rapidly and placed in ice-cold perfusion buffer (10 mM creatine monohydrate, 30 mM Taurine, 5.6 mM Dglucose, 4.6 mM NaHCO3, 10 mM BDM, 120 mM NaCl, 15 mM KCl, 0.6 mM Na2HPO4, 0.6 mM KH2PO4, 1.2 mM MgSO4, 10 mM Hepes, filtered at 0.40 μm, pH 7.4). The heart was washed briefly in perfusion buffer, and excess fat/thymus tissue trimmed off. […] Cells were then inspected and counted, and if <60% of myocytes were rod-shaped (viable) the cells were not used for experimentation. […]

[3] = tested on: myofibrils from MPAT hiPSC-CMs; assay: Myofibril mechanics of MPAT hiPSC-CMs; assay type: cell-based, human
Text: FIG. 13 is graphs showing results that indicate that phenylephrine treatment induces changes in myofibril relaxation which are similar to those observed in human hypertrophic cardiomyopathy. […] Myofibrils were isolated from 4 donor and 4 HCM hearts, with at least 6 myofibrils isolated per heart. […] 44-45 myofibrils isolated per condition, pooled from 3 independent inductions. Complete tables of myofibril data from these experiments are available in Tables 4 and 5. *, **, **** p<0.05, 0.01, 0.0001, Student's t test on log2-transformed data.
To isolate myofibrils from adult mouse cardiomyocytes and stem cell derived cardiomyocytes, cells were lysed and myofibrils prepared using an adaption from a recently described method. In brief, cells were lysed in relaxing solution with protease inhibitors and 20% (w/vol) sucrose, using a scraper. The lysed cell solution was then transferred into a microfuge tube and incubated on ice for 10 minutes with periodic vortexing. The cell/myofibril solution was then centrifuged at 1,500 g for 5 minutes at 4° C., and the cell/myofibril pellet resuspended in fresh relaxing solution with protease inhibitors. This process was repeated twice to remove any residual sucrose, and the cell/myofibril solution was then homogenized.
Myofibril mechanics were quantified using the fast solution switching technique on a custom-built experimental rig. Myofibril suspensions were plated onto a temperature controlled glass coverslip (15° C.) containing relaxing solution. Single myofibrils and myofibril bundles were then picked up from the surface of this coverslip and mounted between two glass micro-tools. One tool, the stretcher, was linked to a motor which could produce rapid changes in length (Mad City Labs, Madison, Wis.), while the second tool was a calibrated cantilevered force probe (6-8 μm/μN; frequency response 2-5 KHz), which was colored with black ink to increase probe sensitivity. After mounting myofibrils between microtools, they were stretched to 5-10% above slack myofibril length. Average sarcomere lengths and myofibril diameters were measured using ImageJ software. Mounted myofibrils were then activated and relaxed by rapidly changing the position of a double-barreled pipette simultaneously releasing activating solution (pCa 4.5) and relaxing solution (pCa 9.0) from each barrel. By rapidly changing the position of the pipette, the mounted myofibril could be induced to activate and relax. From the activation/relaxation trace produced, the following parameters were acquired: resting tension, the passive tension produced in relaxing conditions, induced by a push on the stretcher; maximum tension (mN/mm2), the greatest level of active tension generated by the myofibril at full calcium activation (pCa 4.5); activation kinetics (kAct), the rate constant of tension development following myofibril activation; reactivation kinetics (kTr), the rate constant of tension redevelopment following myofibril release/stretch to break cross bridges; slow phase relaxation kinetics (kREL,SLOVV), the kinetics of the initial slow/linear phase of myofibril relaxation, slow phase relaxation time (TLIN), the duration of the slow phase of relaxation, from the switching of the pipette to relaxing solution to the beginning of the fast phase of relaxation; fast phase relaxation kinetics (kREL,FAST), the rate constant of the fast (exponential) phase of relaxation.

[4] = tested on: adult rat cardiac (ARVM) myofibrils; settings: 48 hours of PE treatment; cited from earlier work
adult cardiomyocytes = settings: in vitro, typical response; cited from earlier work
hiPSC-CMs [5] = assay: BNP / pro-NT-BNP immunofluorescent staining of hiPSC-CMs; assay type: cell-based, human; settings: GLUC hiPSC-CMs; 10 μM PE, 48 hours
Experimental: as §1
For B-type natriuretic peptide (BNP) staining, an adaption of a previously published method was used: cells were PFA fixed, then blocked and permeabilized for 30 minutes with 5% milk/0.1% Triton X-100/PBS (blocking solution) for 30 minutes at room temperature. Cells were then incubated with pro-BNP antibody diluted in blocking solution overnight at 4° C. Cells were then washed four times in 0.05% Triton-X 100/PBS for 5 minutes, and incubated with secondary antibody diluted in blocking solution for hour at room temperature. Cells were then washed twice in 0.05% Triton-X 100/PBS for 5 minutes, counterstained with Hoescht 3342 as described above, and washed twice more.
All imaging was conducted on an EVOS FL Cell Imaging System (Thermo Fisher Scientific, Waltham, MA). […]

neonatal cardiomyocytes = settings: in vitro; cited from earlier work
myofibrils from AMVCMs = assay: Myofibril mechanics of AMVCMs; assay type: cell-based, mouse
Experimental: Myofibril mechanics data from AMVCMs isolated from 8-12 week old adult mice and treated with vehicle or 10 μM PE for 72 hours before myofibril isolation. Note that rodent myofibrils display profoundly faster kinetics of both activation and relaxation at baseline compared to myofibrils from human hiPSC-CMs and cardiac tissue. *, p<0.05, Student t test. 21-26 myofibrils were isolated from three separate cardiomyocyte isolations. A complete table of myofibril mechanics data on AMVCMs can be seen in Table 6.
Cardiomyocyte Isolation: 15 minutes prior to beginning isolation, mice were injected with 300 μL of heparin (10,000 units/mL). Mice were then anesthetized via inhalation of isofluorane, and when becoming unresponsive to toe pinch were killed via cervical dislocation. The chest was then opened, and the heart was removed rapidly and placed in ice-cold perfusion buffer (10 mM creatine monohydrate, 30 mM Taurine, 5.6 mM Dglucose, 4.6 mM NaHCO3, 10 mM BDM, 120 mM NaCl, 15 mM KCl, 0.6 mM Na2HPO4, 0.6 mM KH2PO4, 1.2 mM MgSO4, 10 mM Hepes, filtered at 0.40 μm, pH 7.4). The heart was washed briefly in perfusion buffer, and excess fat/thymus tissue trimmed off. The aorta was then cannulated using a blunted 20-gauge needle, and was mounted on a Langendorff apparatus (Radnoti, Covina, Calif.) with a heating pump kept at 37° C. for the duration of the isolation (VWR International, Radnor, Pa.). Hearts were mounted on the Langendorff apparatus within 3-7 minutes of removing from the body. The heart was then perfused in retrograde fashion at a rate of 4 mL/minute, driven by a Rainin™ Rabbit peristaltic pump (Mettler Toledo, Columbus, Ohio). To remove blood from the heart's vessels, it was first perfused for 3 min using perfusion buffer. Buffer was then switched to calcium-free digestion buffer (perfusion buffer with 1.3 mg/mL collagenase II) for 3 min and was then switched to digestion buffer supplemented with […] CaCl2. Hearts were perfused with high-calcium digestion buffer for another 6 to 10 minutes, once the heart became extremely soft and compliant. The heart was then removed from the cannulating needle and placed in a 60 mm culture dish with 2.5 mL high-calcium digestion buffer. The atria and right ventricle were then removed, and the left ventricle dissociated using a pipette and forceps. Once the heart was completely dissociated, digestion was halted by the addition of 7.5 mL stopping buffer (perfusion buffer with 10% (vol/vol) FBS and […] CaCl2). The cardiomyocyte suspension was then filtered through 200-μm mesh into a 50-mL conical tube, and the culture dish washed with an additional 10 mL stopping buffer, which was then filtered into the conical tube as well. This cell suspension was then allowed to incubate for 10 minutes at room temperature, allowing a cardiomyocyterich pellet to form. The fibroblast-rich supernatant was discarded, while the pellet with was resuspended in 10 mL of stopping buffer. 100 mM CaCl2 solution was then added to this buffer in a stepwise manner, with 2-min intervals between each addition: calcium concentration was first increased to 112.5 μmol/L, then to 312.5 μmol/L, then 712.5 μmol/L, and finally to 1.4 mmol/L. The cell suspension was then centrifuged at 1,000×g for 3 min at room temperature. Cells were then inspected and counted, and if <60% of myocytes were rod-shaped (viable) the cells were not used for experimentation. Cardiomyocytes were then resuspended in plating medium [perfusion buffer with 2.5% (vol/vol) FBS, 1% (vol/vol) penicillin/streptomycin (P/S), and 1.4 mM CaCl2, and plated on either 6 well plates (for myofibril mechanics) or 24 well plates (for hypertrophy imaging) coated with 9-10 μg/mL Laminin. […]

[6] = MPAT hiPSC-CMs, 10 μM PE, 48 hours, mean ± SEM

Cc1sc2c(c1C)C(c1ccc(Cl)cc1)=N[C@@H](CC(=O)OC(C)(C)C)c1nnc(C)n1-2 [JQ-1]
effect on cell area (hiPSC-CMs [1]; GLUC hiPSC-CMs, 10 μM PE and 1 μM JQ-1, 48 hours): profoundly reduced cell area; also recorded: reduced cell area significantly beyond baseline
reduction of cell area relative to PE-treated cells (hiPSC-CMs [1]; MM hiPSC-CMs, 10 μM PE and 1 μM JQ-1, 48 hours): 17%
reduction of cell area relative to PE-treated cells (hiPSC-CMs [1]; MPAT hiPSC-CMs, 10 μM PE and 1 μM JQ-1, 48 hours): 31%
decrease in cell area ([2]; 10 μM PE and 1 μM JQ-1, 72 hours): 11%

CNC[C@H](O)c1cccc(O)c1 [PE, phenylephrine]
Max. tens. [3, 6]: 44.04 ± 5.05 mN/mm^2
Rest. tens. [3, 6]: 6.15 ± 0.90 mN/mm^2
kACT [3, 6]: 1.03 ± 0.08 s⁻¹
kREL, FAST [3, 6]: 8.64 ± 0.77* s^−1
kREL, SLOW [3, 6]: 0.58 ± 0.12 s⁻¹
kTR [3, 6]: 0.80 ± 0.06 s⁻¹
tLIN [3, 6]: 113.6 ± 6.2**** mSec
shortening of linear phase of relaxation ([3]; hiPSC-CMs, PE vs vehicle (Table 5)): more than 80 msec
effect on myofibril calcium sensitivity [4]: increased myofibril calcium sensitivity
effect on the kinetics of myofibril activation or relaxation [4]: no effect
increase in cell area (hiPSC-CMs [1]; MM hiPSC-CMs, 10 μM PE, 48 hours): 29%
increase in cell area (hiPSC-CMs [1]; MPAT hiPSC-CMs, 10 μM PE, 48 hours): 19%
effect on cell area (hiPSC-CMs [1]; hiPSC-CMs cultured in glucose-containing medium (GLUC), 10 μM PE, 48 hours): no effect; also recorded: no hypertrophic response
increase in cell area (adult cardiomyocytes): 10-30%
increase in cell area ([2]; 10 μM PE, 72 hours): 16%
cells staining positive for BNP expression (hiPSC-CMs [5]): not increased
increase in cell area (neonatal cardiomyocytes): 50-100%
Max. tens. (myofibrils from AMVCMs; 10 μM PE, 72 hours, mean ± SEM): 68.55 ± 6.39 mN/mm^2
Rest. tens. (myofibrils from AMVCMs; 10 μM PE, 72 hours, mean ± SEM): 6.94 ± 1.07 mN/mm^2
kACT (myofibrils from AMVCMs; 10 μM PE, 72 hours, mean ± SEM): 4.45 ± 0.33 s⁻¹
kREL, FAST (myofibrils from AMVCMs; 10 μM PE, 72 hours, mean ± SEM): 36.61 ± 4.59 s⁻¹
kREL, SLOW (myofibrils from AMVCMs; 10 μM PE, 72 hours, mean ± SEM): 1.83 ± 0.32 s⁻¹
kTR (myofibrils from AMVCMs; 10 μM PE, 72 hours, mean ± SEM): 3.12 ± 0.30 s⁻¹
tLIN (myofibrils from AMVCMs; 10 μM PE, 72 hours, mean ± SEM): 45.83 ± 2.58* mSec
shortening of linear phase of relaxation (myofibrils from AMVCMs; PE vs PBS (Table 6)): ~10 ms

Reference: patent US20200362314A1, “METHODS TO PRODUCE ADULT-LIKE CARDIOMYOCYTES DERIVED FROM INDUCED PLURIPOTENT STEM CELLS FOR DRUG DISCOVERY” (THE REGENTS OF THE UNIVERSITY OF COLORADO, A BODY CORPORATE, priority 2019, published 2020)
